From the kinase profiling compilation of Christmann-Franck et al. (2016)
Values belong to the compound of their own block, whether it stands above or below them.

Experiments:
Experiment in all cases: KINOMEscan competition binding
[1] = molecular target: ACVR2A (human) (UniProt P27037); details: compound 10.0 µM
[2] = molecular target: BMP2K (human) (UniProt Q9NSY1); details: compound 10.0 µM
[3] = molecular target: BMPR1B (human) (UniProt O00238); details: compound 10.0 µM
[4] = molecular target: BRSK2 (human) (UniProt Q8IWQ3); details: compound 10.0 µM
[5] = molecular target: CAMKK2 (human) (UniProt Q96RR4); details: compound 10.0 µM
[6] = molecular target: CDK7 (human) (UniProt P50613); details: compound 10.0 µM
[7] = molecular target: CLK1 (human) (UniProt P49759); details: for kinase still bound, per cent of control: compound 10.0 µM
[8] = molecular target: CLK4 (human) (UniProt Q9HAZ1); details: compound 10.0 µM
[9] = molecular target: CSNK1D (human) (UniProt P48730); details: compound 10.0 µM
[10] = molecular target: CSNK1E (human) (UniProt P49674); details: compound 10.0 µM
[11] = molecular target: DAPK2 (human) (UniProt Q9UIK4); details: for kinase still bound, per cent of control: compound 10.0 µM
[12] = molecular target: DCLK3 (human) (UniProt Q9C098); details: compound 10.0 µM
[13] = molecular target: DYRK1B (human) (UniProt Q9Y463); details: compound 10.0 µM
[14] = molecular target: FLT3 (human) (UniProt P36888); details: compound 10.0 µM
[15] = test system: FLT3 (human), P36888 [D835H]; details: compound 10.0 µM
[16] = test system: FLT3 (human), P36888 [ITD]; details: compound 10.0 µM
[17] = molecular target: GSK3A (human) (UniProt P49840); details: compound 10.0 µM
[18] = molecular target: HIPK1 (human) (UniProt Q86Z02); details: compound 10.0 µM
[19] = molecular target: JAK1 JH2 pseudokinase (human) (UniProt P23458); details: compound 10.0 µM
[20] = molecular target: KIT (human) (UniProt P10721); details: compound 10.0 µM
[21] = test system: KIT (human), P10721 [D816V]; details: compound 10.0 µM
[22] = test system: KIT (human), P10721 [V559D/T670I]; details: compound 10.0 µM
[23] = test system: KIT (human), P10721 [V559D/V654A]; details: compound 10.0 µM
[24] = molecular target: MAP2K4 (human) (UniProt P45985); details: compound 10.0 µM
[25] = molecular target: MAP3K5 (human) (UniProt Q99683); details: compound 10.0 µM
[26] = molecular target: MAP4K2 (human) (UniProt Q12851); details: compound 10.0 µM
[27] = molecular target: MAP4K4 (human) (UniProt O95819); details: compound 10.0 µM
[28] = molecular target: MKNK2 (human) (UniProt Q9HBH9); details: compound 10.0 µM
[29] = molecular target: PIK3CG (human) (UniProt P48736); details: compound 10.0 µM
[30] = molecular target: PIP4K2B (human) (UniProt P78356); details: compound 10.0 µM
[31] = molecular target: RIOK1 (human) (UniProt Q9BRS2); details: compound 10.0 µM
[32] = molecular target: RIOK2 (human) (UniProt Q9BVS4); details: compound 10.0 µM
[33] = molecular target: RIOK3 (human) (UniProt O14730); details: compound 10.0 µM
[34] = molecular target: RPS6KA1 KD2 (human) (UniProt Q15418); details: compound 10.0 µM
[35] = molecular target: RPS6KA6 KD2 (human) (UniProt Q9UK32); details: compound 10.0 µM
[36] = molecular target: SRPK2 (human) (UniProt P78362); details: compound 10.0 µM
[37] = molecular target: STK17A (human) (UniProt Q9UEE5); details: for kinase still bound, per cent of control: compound 10.0 µM
[38] = molecular target: STK24 (human) (UniProt Q9Y6E0); details: compound 10.0 µM
[39] = molecular target: TAOK1 (human) (UniProt Q7L7X3); details: compound 10.0 µM
[40] = molecular target: TGFBR2 (human) (UniProt P37173); details: compound 10.0 µM
[41] = molecular target: TLK1 (human) (UniProt Q9UKI8); details: compound 10.0 µM
[42] = molecular target: TNK1 (human) (UniProt Q13470); details: compound 10.0 µM

Chain of DCLK3 (human) (Q9C098 whole entry, looked up): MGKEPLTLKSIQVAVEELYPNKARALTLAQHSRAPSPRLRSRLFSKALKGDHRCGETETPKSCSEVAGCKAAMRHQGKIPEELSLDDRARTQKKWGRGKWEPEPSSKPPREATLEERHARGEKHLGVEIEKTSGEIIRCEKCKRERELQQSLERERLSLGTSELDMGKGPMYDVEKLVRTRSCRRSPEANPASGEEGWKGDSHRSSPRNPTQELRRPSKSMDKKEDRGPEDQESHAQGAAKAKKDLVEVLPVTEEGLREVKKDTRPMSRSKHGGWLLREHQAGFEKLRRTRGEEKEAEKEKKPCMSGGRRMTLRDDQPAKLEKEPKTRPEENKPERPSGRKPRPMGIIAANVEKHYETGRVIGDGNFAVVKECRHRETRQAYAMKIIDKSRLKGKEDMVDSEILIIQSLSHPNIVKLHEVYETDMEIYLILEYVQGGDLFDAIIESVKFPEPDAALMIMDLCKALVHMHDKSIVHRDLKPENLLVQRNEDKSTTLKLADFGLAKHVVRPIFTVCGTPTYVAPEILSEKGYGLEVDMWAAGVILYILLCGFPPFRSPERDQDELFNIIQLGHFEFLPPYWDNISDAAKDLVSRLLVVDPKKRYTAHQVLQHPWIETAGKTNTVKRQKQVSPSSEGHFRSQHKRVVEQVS
Chain of MKNK2 (human) (Q9HBH9 whole entry, looked up): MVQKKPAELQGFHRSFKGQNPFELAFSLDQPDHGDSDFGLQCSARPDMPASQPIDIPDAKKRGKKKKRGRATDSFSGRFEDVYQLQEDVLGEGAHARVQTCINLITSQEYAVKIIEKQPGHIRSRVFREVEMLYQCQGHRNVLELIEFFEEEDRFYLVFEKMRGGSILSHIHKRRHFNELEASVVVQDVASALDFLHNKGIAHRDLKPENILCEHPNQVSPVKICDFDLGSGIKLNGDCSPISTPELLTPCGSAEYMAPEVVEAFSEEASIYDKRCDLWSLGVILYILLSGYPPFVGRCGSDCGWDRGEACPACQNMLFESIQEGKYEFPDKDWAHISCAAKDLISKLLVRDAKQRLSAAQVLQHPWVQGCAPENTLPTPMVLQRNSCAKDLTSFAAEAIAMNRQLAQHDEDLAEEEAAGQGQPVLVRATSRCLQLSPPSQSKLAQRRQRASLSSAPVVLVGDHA
Chain of PIP4K2B (human) (P78356 whole entry, looked up): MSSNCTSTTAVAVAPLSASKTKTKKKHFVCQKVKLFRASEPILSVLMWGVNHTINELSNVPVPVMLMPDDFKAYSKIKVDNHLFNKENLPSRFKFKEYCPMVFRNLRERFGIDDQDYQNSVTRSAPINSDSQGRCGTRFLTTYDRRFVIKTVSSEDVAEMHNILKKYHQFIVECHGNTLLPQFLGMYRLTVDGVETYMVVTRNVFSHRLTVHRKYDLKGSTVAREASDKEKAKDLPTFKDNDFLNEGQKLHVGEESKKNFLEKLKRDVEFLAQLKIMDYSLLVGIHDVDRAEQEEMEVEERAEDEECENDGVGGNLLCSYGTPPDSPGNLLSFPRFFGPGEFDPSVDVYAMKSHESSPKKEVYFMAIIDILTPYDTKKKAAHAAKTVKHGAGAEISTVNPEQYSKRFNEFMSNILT
Chain of TGFBR2 (human) (P37173 whole entry, looked up): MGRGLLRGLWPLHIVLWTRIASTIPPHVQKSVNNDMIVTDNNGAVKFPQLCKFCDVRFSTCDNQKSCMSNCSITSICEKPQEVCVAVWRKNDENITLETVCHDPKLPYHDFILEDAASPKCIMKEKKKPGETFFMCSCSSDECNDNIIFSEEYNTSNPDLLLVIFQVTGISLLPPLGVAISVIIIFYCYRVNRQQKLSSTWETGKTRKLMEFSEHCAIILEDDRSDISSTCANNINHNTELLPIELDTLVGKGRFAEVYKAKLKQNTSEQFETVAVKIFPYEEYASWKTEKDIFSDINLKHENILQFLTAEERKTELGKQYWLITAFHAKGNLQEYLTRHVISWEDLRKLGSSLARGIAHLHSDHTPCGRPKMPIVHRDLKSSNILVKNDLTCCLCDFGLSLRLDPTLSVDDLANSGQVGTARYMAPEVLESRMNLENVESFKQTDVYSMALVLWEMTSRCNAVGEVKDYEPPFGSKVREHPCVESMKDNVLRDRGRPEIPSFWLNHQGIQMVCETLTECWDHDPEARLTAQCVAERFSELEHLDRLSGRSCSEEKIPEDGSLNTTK
Chain of RPS6KA6 KD2 (human) (Q9UK32 whole entry, looked up): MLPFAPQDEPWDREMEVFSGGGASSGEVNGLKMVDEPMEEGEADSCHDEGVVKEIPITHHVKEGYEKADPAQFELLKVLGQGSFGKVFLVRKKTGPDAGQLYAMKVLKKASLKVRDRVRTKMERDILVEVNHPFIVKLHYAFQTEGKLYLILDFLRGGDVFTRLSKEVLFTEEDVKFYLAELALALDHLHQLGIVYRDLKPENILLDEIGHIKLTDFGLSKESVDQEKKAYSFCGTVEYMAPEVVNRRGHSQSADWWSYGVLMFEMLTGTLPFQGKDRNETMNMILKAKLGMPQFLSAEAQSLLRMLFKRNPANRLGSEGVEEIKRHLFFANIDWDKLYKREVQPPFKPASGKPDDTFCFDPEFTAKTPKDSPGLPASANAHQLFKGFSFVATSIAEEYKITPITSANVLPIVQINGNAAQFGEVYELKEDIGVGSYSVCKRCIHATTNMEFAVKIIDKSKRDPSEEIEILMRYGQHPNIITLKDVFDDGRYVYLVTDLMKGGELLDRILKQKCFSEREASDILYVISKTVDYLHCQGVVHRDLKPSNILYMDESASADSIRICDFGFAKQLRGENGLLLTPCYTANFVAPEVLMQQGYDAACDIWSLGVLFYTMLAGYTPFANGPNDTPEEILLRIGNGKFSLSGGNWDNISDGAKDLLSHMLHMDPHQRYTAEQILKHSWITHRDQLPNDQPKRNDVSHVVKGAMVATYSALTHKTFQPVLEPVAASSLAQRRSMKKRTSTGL
Chain of CAMKK2 (human) (Q96RR4 whole entry, looked up): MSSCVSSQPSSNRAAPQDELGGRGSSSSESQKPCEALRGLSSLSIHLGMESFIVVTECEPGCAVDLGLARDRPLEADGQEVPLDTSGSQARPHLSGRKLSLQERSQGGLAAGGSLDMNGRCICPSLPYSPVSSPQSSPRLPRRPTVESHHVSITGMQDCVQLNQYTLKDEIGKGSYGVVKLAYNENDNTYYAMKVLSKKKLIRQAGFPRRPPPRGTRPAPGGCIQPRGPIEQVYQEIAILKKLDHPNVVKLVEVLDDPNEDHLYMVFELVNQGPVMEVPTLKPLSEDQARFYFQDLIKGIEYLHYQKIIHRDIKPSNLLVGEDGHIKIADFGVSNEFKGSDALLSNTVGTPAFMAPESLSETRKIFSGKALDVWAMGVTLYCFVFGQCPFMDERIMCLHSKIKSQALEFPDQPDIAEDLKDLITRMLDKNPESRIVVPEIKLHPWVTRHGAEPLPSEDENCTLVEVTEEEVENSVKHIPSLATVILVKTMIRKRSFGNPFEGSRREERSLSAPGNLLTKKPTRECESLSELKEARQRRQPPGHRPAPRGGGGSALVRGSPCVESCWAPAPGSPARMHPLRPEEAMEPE
Chain of CSNK1D (human) (P48730 whole entry, looked up): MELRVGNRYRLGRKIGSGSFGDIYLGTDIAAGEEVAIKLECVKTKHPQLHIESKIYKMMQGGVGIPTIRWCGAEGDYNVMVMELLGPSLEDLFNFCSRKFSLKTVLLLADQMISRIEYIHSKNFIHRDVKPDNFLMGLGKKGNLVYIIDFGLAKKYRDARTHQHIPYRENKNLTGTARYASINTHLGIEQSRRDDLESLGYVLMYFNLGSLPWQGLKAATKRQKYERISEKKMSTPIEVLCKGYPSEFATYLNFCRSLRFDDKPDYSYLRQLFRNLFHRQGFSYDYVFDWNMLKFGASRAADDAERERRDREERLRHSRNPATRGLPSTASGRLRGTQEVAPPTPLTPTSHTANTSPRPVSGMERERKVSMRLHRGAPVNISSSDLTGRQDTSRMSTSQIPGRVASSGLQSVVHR
Chain of STK17A (human) (Q9UEE5 whole entry, looked up): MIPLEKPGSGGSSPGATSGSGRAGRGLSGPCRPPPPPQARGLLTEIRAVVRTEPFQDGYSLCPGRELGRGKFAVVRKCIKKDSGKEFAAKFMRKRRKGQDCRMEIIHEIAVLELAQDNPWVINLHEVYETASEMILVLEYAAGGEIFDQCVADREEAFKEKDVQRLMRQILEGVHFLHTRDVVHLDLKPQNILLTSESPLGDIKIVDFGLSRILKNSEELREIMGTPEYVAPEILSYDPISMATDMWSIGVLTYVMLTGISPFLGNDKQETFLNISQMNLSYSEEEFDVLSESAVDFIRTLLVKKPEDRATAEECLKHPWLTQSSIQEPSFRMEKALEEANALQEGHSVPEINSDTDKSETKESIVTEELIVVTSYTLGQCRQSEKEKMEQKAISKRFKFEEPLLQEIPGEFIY
Chain of TLK1 (human) (Q9UKI8 whole entry, looked up): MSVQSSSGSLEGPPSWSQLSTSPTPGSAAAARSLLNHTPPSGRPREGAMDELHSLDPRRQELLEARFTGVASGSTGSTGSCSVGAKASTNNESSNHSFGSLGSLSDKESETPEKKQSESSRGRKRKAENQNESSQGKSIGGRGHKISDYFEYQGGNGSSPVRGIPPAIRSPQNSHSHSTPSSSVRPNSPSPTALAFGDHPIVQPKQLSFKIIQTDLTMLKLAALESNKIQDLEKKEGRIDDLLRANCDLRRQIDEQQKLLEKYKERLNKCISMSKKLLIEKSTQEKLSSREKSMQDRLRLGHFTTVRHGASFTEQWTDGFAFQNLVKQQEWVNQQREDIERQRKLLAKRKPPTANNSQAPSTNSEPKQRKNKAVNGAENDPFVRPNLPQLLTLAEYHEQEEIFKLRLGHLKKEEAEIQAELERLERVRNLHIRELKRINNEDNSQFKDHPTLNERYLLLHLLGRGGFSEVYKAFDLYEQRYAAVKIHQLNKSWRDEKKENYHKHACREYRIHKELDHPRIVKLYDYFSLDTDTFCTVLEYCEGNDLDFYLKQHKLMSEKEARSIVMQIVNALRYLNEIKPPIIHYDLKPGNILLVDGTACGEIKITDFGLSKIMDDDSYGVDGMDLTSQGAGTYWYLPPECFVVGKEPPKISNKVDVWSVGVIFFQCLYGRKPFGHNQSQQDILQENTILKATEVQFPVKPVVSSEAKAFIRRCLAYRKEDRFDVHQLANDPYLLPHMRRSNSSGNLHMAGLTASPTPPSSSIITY

kinase still bound, per cent of control [1]: 90%
kinase still bound, per cent of control [2]: 43%
kinase still bound, per cent of control [3]: 13%
kinase still bound, per cent of control [4]: 48%
kinase still bound, per cent of control [5]: 55%
kinase still bound, per cent of control [6]: 60%
kinase still bound, per cent of control [7]: 75%
kinase still bound, per cent of control [8]: 100%
kinase still bound, per cent of control [9]: 77%
kinase still bound, per cent of control [10]: 100%
kinase still bound, per cent of control [11]: 100%
kinase still bound, per cent of control [12]: 68%
kinase still bound, per cent of control [13]: 100%
kinase still bound, per cent of control [14]: 100%
kinase still bound, per cent of control [15]: 28%
kinase still bound, per cent of control [16]: 52%
kinase still bound, per cent of control [17]: 100%
kinase still bound, per cent of control [18]: 95%
kinase still bound, per cent of control [19]: 4.8%
kinase still bound, per cent of control [20]: 66%
kinase still bound, per cent of control [21]: 69%
kinase still bound, per cent of control [22]: 73%
kinase still bound, per cent of control [23]: 58%
kinase still bound, per cent of control [24]: 74%
kinase still bound, per cent of control [25]: 100%
kinase still bound, per cent of control [26]: 80%
kinase still bound, per cent of control [27]: 85%
kinase still bound, per cent of control [28]: 8.4%
kinase still bound, per cent of control [29]: 4.2%
kinase still bound, per cent of control [30]: 75%
kinase still bound, per cent of control [31]: 90%
kinase still bound, per cent of control [32]: 63%
kinase still bound, per cent of control [33]: 82%
kinase still bound, per cent of control [34]: 45%
kinase still bound, per cent of control [35]: 63%
kinase still bound, per cent of control [36]: 100%
kinase still bound, per cent of control [37]: 100%
kinase still bound, per cent of control [38]: 82%
kinase still bound, per cent of control [39]: 0.9%
kinase still bound, per cent of control [40]: 100%
kinase still bound, per cent of control [41]: 69%
kinase still bound, per cent of control [42]: 0.95%
Structure (SMILES): CN1C(=O)c2ccccc2N(C)c2nc(Nc3ccc(N4CCC(O)CC4)cc3)ncc21

kinase still bound, per cent of control [1]: 76%
kinase still bound, per cent of control [2]: 2%
kinase still bound, per cent of control [3]: 4.8%
kinase still bound, per cent of control [4]: 100%
kinase still bound, per cent of control [5]: 31%
kinase still bound, per cent of control [6]: 5.6%
Kd [7]: 240 nM
kinase still bound, per cent of control [7]: 0.3%
kinase still bound, per cent of control [8]: 15%
kinase still bound, per cent of control [9]: 13%
kinase still bound, per cent of control [10]: 11%
Kd [11]: 6.1 nM
kinase still bound, per cent of control [11]: 0.5%
kinase still bound, per cent of control [12]: 2%
kinase still bound, per cent of control [13]: 3%
kinase still bound, per cent of control [14]: 91%
kinase still bound, per cent of control [15]: 71%
kinase still bound, per cent of control [16]: 75%
kinase still bound, per cent of control [17]: 75%
kinase still bound, per cent of control [18]: 3.5%
kinase still bound, per cent of control [19]: 64%
kinase still bound, per cent of control [20]: 82%
kinase still bound, per cent of control [21]: 76%
kinase still bound, per cent of control [22]: 72%
kinase still bound, per cent of control [23]: 99%
kinase still bound, per cent of control [24]: 57%
kinase still bound, per cent of control [25]: 100%
kinase still bound, per cent of control [26]: 32%
kinase still bound, per cent of control [27]: 4.9%
kinase still bound, per cent of control [28]: 93%
kinase still bound, per cent of control [29]: 0.3%
kinase still bound, per cent of control [30]: 1.1%
kinase still bound, per cent of control [31]: 5%
kinase still bound, per cent of control [32]: 66%
kinase still bound, per cent of control [33]: 3.4%
kinase still bound, per cent of control [34]: 34%
kinase still bound, per cent of control [35]: 29%
kinase still bound, per cent of control [36]: 10%
Kd [37]: 190 nM
kinase still bound, per cent of control [37]: 0.05%
kinase still bound, per cent of control [38]: 71%
kinase still bound, per cent of control [39]: 24%
kinase still bound, per cent of control [40]: 18%
kinase still bound, per cent of control [41]: 66%
kinase still bound, per cent of control [42]: 100%
Structure (SMILES): O=C1NC(=O)/C(=C/c2c[nH]c(=O)c(-c3ccc(N4CCNCC4)nc3)c2)S1

kinase still bound, per cent of control [1]: 100%
kinase still bound, per cent of control [2]: 100%
kinase still bound, per cent of control [3]: 100%
kinase still bound, per cent of control [4]: 100%
kinase still bound, per cent of control [5]: 100%
kinase still bound, per cent of control [6]: 91%
kinase still bound, per cent of control [7]: 100%
kinase still bound, per cent of control [8]: 100%
kinase still bound, per cent of control [9]: 82%
kinase still bound, per cent of control [10]: 100%
kinase still bound, per cent of control [11]: 94%
kinase still bound, per cent of control [12]: 100%
kinase still bound, per cent of control [13]: 100%
kinase still bound, per cent of control [14]: 100%
kinase still bound, per cent of control [15]: 95%
kinase still bound, per cent of control [16]: 100%
kinase still bound, per cent of control [17]: 100%
kinase still bound, per cent of control [18]: 100%
kinase still bound, per cent of control [19]: 100%
kinase still bound, per cent of control [20]: 76%
kinase still bound, per cent of control [21]: 100%
kinase still bound, per cent of control [22]: 100%
kinase still bound, per cent of control [23]: 100%
kinase still bound, per cent of control [24]: 61%
kinase still bound, per cent of control [25]: 100%
kinase still bound, per cent of control [26]: 80%
kinase still bound, per cent of control [27]: 100%
kinase still bound, per cent of control [28]: 72%
kinase still bound, per cent of control [29]: 96%
kinase still bound, per cent of control [30]: 100%
kinase still bound, per cent of control [31]: 66%
kinase still bound, per cent of control [32]: 71%
kinase still bound, per cent of control [33]: 69%
kinase still bound, per cent of control [34]: 100%
kinase still bound, per cent of control [35]: 96%
kinase still bound, per cent of control [36]: 100%
kinase still bound, per cent of control [37]: 100%
kinase still bound, per cent of control [38]: 100%
kinase still bound, per cent of control [39]: 60%
kinase still bound, per cent of control [40]: 100%
kinase still bound, per cent of control [41]: 100%
kinase still bound, per cent of control [42]: 100%
Structure (SMILES): CN1C(=O)c2ccccc2N(C)c2nc(NS(=O)(=O)c3ccc(N)cc3)ncc21
